Laboratory results from patent publication US20210186997A1, “METHODS AND COMPOSITIONS FOR INCREASING NAD LEVEL IN MAMMALS WITH D-RIBOSE AND VITAMIN B3” (Bioenergy Life Science, Inc., priority 2018, published 2021).
“Also recorded” adds a separate entry of the source.

Legend:
[1] = system: NAD levels; assay: Experiment 1: NAD levels in blood by LC/MS after bolus administration; assay type: in vivo, Sprague-Dawley rats; details: for NAD levels in blood: male rats, bolus 100 mg per kg of body weight, 0.25-24 hours after feeding, compared to baseline, FIG. 1
Experimental: Four groups of four male Sprague-Dawley rats were each bolus administered the different compounds identified in the table below at a dosage of 100 mg per kg of body weight:
A blood sample of 0.1 ml was drawn from each rat of each group at increments of 0.25, 0.5, 1, 2, 4, 8 and 24 hours after feeding. Each of the blood samples were then measured by Liquid Chromatography/Mass Spectrometry (LC/MS) for NAD levels. The measured NAD levels are charted in FIG. 1, with each data point being the average of the four rats of each group.

[2] = system: NR levels; assay: Experiment 1: NR levels in blood by LC/MS after bolus administration; assay type: in vivo, Sprague-Dawley rats; details: male rats, bolus 100 mg/kg, 0.25-24 hours after feeding, compared to baseline, FIG. 2
Experimental: Four groups of four male Sprague-Dawley rats were each bolus administered the different compounds identified in the table below at a dosage of 100 mg per kg of body weight: [table] The blood drawn from each of the groups at the increments referenced above were also measured by LC/MS for NR levels. The measured NR levels are charted in FIG. 2, with each data point being the average of three animals of the same sex.

[3] = system: NAD+; assay: Experiment 3: NAD+ in blood by LC/MS/MS, oral dosing twice daily for five days; assay type: in vivo, Sprague-Dawley male rats; details: Nicotinamide control (coated nicotinamide 108 mg/kg PO BID), relative to RiaGev dose-response line, FIG. 11
Experimental: Eighteen Sprague-Dawley male rats were selected as test animals in the study, with three rats for each of six treatment groups. Sprague-Dawley male rats were selected because they have been widely used in similar experiments with reliable results. The use of three rats per group offers the minimum number required to calculate useful means and standard deviations for graphical representation of the data. For five consecutive days, the rats were dosed at approximately 7:30-8:30 a.m. and at approximately 4:30-5:45 p.m. Blood was collected approximately 0.5 to 1.5 hours following each p.m. dosing and immediately processed and assayed for NAD+, NMN, and NR by LC/MS/MS. The timing of the supplementation doses was chosen to mimic behavior in humans and other non-nocturnal mammals (i.e., diurnal mammals) of eating breakfast in the morning and dinner in the early evening by administering the doses to the animals at around those times. […] Thus the evening sampling time for the rats would correspond to the morning for humans and other diurnal mammals. The animals were humanely euthanized after the final blood draw and representative samples of the liver, biceps muscle, peripheral adipose tissue, and whole brain were collected, snap frozen, extracted, and assayed for NAD+, NMN, and NR by LC/MS/MS. […]

Structure (SMILES)	NAD levels in blood [1]	NR levels in blood [2]	time to peak blood NAD level ([1]; after consumption)	blood NAD concentration change over its base (water control) level [3]
O=C[C@H](O)[C@H](O)[C@H](O)CO [D-ribose]	elevated NAD levels; also recorded: increases NAD levels	enhance NR levels	–	–
O=C(O)c1cccnc1 [Niacin, Nicotinic Acid (Niacin)]	elevated NAD levels	enhance NR levels	–	–
NC(=O)c1ccc[n+]([C@@H]2O[C@H](CO)[C@@H](O)[C@H]2O)c1 [Nicotinamide Riboside (NR), Nicotinamide Riboside]	highest peak value	–	about 8 hours	–
NC(=O)c1cccnc1 [Nicotinamide]	–	–	–	outside of the line
